Measurements: publication PMC11200585, “Prospects for Prostate Cancer Chemotherapy: Cytotoxic Evaluation and Mechanistic Insights of Quinolinequinones with ADME/PK Profile” (Biomedicines, 2024)

Tests used:
Format in all cases: cell-based, human
MDA-MB-231/ATCC [1] = experiment: NCI-60 five-dose assay (breast cancer); conditions: 48 h, SRB
SK-MEL-28 [2] = experiment: NCI-60 one-dose screen (melanoma); conditions: 10 µM single dose, 48 h
Description: (§1) The obtained quinolinequinones were submitted to NCI, Bethesda, USA, and, as per standard protocol of NCI, all compounds were evaluated for their antiproliferative activity at single-dose assay (10 µM concentration in DMSO) on a panel of 60 cancer cell lines derived from leukemia, non-small-cell lung, colon, CNS, melanoma, ovarian, renal, prostate, and breast, as per protocol. Tested compounds were added to the microtiter culture plates followed by incubation for 48 h at 37 °C. Sulforhodamine B (SRB), a protein-binding dye, is used for endpoint determination. The percent of the growth of the treated cells was determined in comparison to the untreated control cells and the results of each tested compound were reported. Data from one-dose experiments pertain to the percentage growth at 10 μM [16, 17, 18].

UACC-62 = experiment: NCI-60 one-dose screen (melanoma); conditions: 10 µM single dose, 48 h
Description: as §1

MALME-3M = experiment: NCI-60 one-dose screen (melanoma); conditions: 10 µM single dose, 48 h
Description: as §1

UACC-257 [3] = experiment: NCI-60 one-dose screen (melanoma); conditions: 10 µM single dose, 48 h
Description: as §1

SK-MEL-5 [4] = experiment: NCI-60 one-dose screen (melanoma); conditions: 10 µM single dose, 48 h
Description: as §1

MDA-MB-435 = experiment: NCI-60 one-dose screen (melanoma); conditions: 10 µM single dose, 48 h
Description: as §1

SK-MEL-2 = experiment: NCI-60 one-dose screen (melanoma); conditions: 10 µM single dose
Description: as §1

LOX IMVI = experiment: NCI-60 one-dose screen (melanoma); conditions: 10 µM single dose, 48 h
Description: as §1

K-562 [5] = experiment: NCI-60 one-dose screen (leukemia)
RPMI-8226 [6] = experiment: NCI-60 one-dose screen (leukemia); conditions: 10 µM single dose, 48 h
CCRF-CEM [7] = experiment: NCI-60 one-dose screen (leukemia); conditions: 10 µM single dose
SR = experiment: NCI-60 one-dose screen (leukemia); conditions: 10 µM single dose, 48 h
HL-60(TB) = experiment: NCI-60 one-dose screen (leukemia); conditions: 10 µM single dose, 48 h
NCI-H23 = experiment: NCI-60 five-dose assay (non-small cell lung cancer); conditions: 48 h, SRB
MDA-MB-468 = experiment: NCI-60 one-dose screen (breast cancer); conditions: 10 µM single dose, 48 h
Description: as §1

MDA-MB-231/ATCC [8] = experiment: NCI-60 one-dose screen (breast cancer); conditions: 10 µM single dose, 48 h
Description: as §1

T-47D = experiment: NCI-60 one-dose screen (breast cancer); conditions: 10 µM single dose, 48 h
Description: as §1

BT-549 = experiment: NCI-60 one-dose screen (breast cancer); conditions: 10 µM single dose, 48 h
Description: as §1

HS 578T = experiment: NCI-60 one-dose screen (breast cancer); conditions: 10 µM single dose, 48 h
Description: as §1

MCF7 [9] = experiment: NCI-60 one-dose screen (breast cancer); conditions: 10 µM single dose, 48 h
Description: as §1

CCRF-CEM [10] = experiment: NCI-60 five-dose assay (leukemia); conditions: Homo sapiens, 48 h, SRB
SK-OV-3 = experiment: NCI-60 five-dose assay (ovarian cancer); conditions: 48 h, SRB
K-562 [11] = experiment: NCI-60 five-dose assay (leukemia); conditions: SRB
MOLT-4 = experiment: NCI-60 five-dose assay (leukemia); conditions: 48 h, SRB
UACC-257 [12] = experiment: NCI-60 five-dose assay (melanoma); conditions: 48 h, SRB
HOP-62 = experiment: NCI-60 five-dose assay (non-small cell lung cancer); conditions: 48 h, SRB
SK-MEL-28 [13] = experiment: NCI-60 five-dose assay (melanoma); conditions: 48 h, SRB
HT29 = experiment: NCI-60 five-dose assay (colon cancer); conditions: SRB
SW-620 = experiment: NCI-60 five-dose assay (colon cancer); conditions: 48 h, SRB
SK-MEL-5 [14] = experiment: NCI-60 five-dose assay (melanoma); conditions: 48 h, SRB
RPMI-8226 [15] = experiment: NCI-60 five-dose assay (leukemia); conditions: 48 h, SRB
EKVX = experiment: NCI-60 five-dose assay (non-small cell lung cancer); conditions: 48 h, SRB
A549/ATCC = experiment: as above; conditions: 48 h, SRB
HCC-2998 = experiment: NCI-60 five-dose assay (colon cancer); conditions: 48 h, SRB
SNB-19 = experiment: NCI-60 five-dose assay (CNS cancer); conditions: 48 h, SRB
MCF7 [16] = experiment: NCI-60 five-dose assay (breast cancer); conditions: 48 h, SRB
[17] = Homo sapiens, read-out: LC50 (the source's name)

COc1cc(NC2=C(Cl)C(=O)c3nc(C)ccc3C2=O)cc(OC)c1 [AQQ5]
TGI (MDA-MB-231/ATCC [1]): 3.08 µM | GI50 (MDA-MB-231/ATCC [1]; Homo sapiens): 1.46 µM | LC50 (concentration killing 50% of cells) (MDA-MB-231/ATCC [1]; Homo sapiens): 6.48 µM | GP (growth percentage) (SK-MEL-28 [2]): −73.06% | GP (growth percentage) (UACC-62): −43.56% | GP (growth percentage) (MALME-3M): −89.37% | GP (growth percentage) (UACC-257 [3]): −92.05% | GP (growth percentage) (SK-MEL-5 [4]): −74.93% | GP (growth percentage) (MDA-MB-435): −87.43% | GP (growth percentage) (SK-MEL-2; 48 h): 5.03% | inhibition at 10 µM (SK-MEL-2; Homo sapiens): 95% | GP (growth percentage) (LOX IMVI): −82.62% | GP (growth percentage) (K-562 [5]; 10 µM single dose, 48 h): 4.73% | inhibition at 10 µM (K-562 [5]; Homo sapiens, K562, 10 µM single dose): 95.3% | GP (growth percentage) (RPMI-8226 [6]): −39.66% | GP (growth percentage) (CCRF-CEM [7]; 48 h): 2.72% | inhibition at 10 µM (CCRF-CEM [7]; Homo sapiens): 97.3% | GP (growth percentage) (SR): −3.19% | GP (growth percentage) (HL-60(TB)): −13.44% | TGI (NCI-H23): 3.15 µM | GI50 (NCI-H23; Homo sapiens): 1.53 µM | CC50 (NCI-H23; [17]): 6.49 µM | GP (growth percentage) (MDA-MB-468): −78.49% | GP (growth percentage) (MDA-MB-231/ATCC [8]): −28.56% | GP (growth percentage) (T-47D): −56.01% | GP (growth percentage) (BT-549): 24.11% | GP (growth percentage) (HS 578T): −32.78% | GP (growth percentage) (MCF7 [9]): −51.73% | GI50 (CCRF-CEM [10]): 2.23 µM | LC50 (concentration killing 50% of cells) (CCRF-CEM [10]): > 100 µM | TGI (SK-OV-3): 25.1 µM | GI50 (SK-OV-3; Homo sapiens): 12.6 µM | LC50 (50% net cell kill) (SK-OV-3; Homo sapiens): 50.1 µM | TGI (K-562 [11]; 48 h): >100 µM | GI50 (K-562 [11]; Homo sapiens, K562, 48 h): 0.381 µM | LC50 (K-562 [11]; Homo sapiens, K562, 48 h): > 100 µM | TGI (MOLT-4): 7.00 µM | GI50 (MOLT-4; Homo sapiens): 1.5 µM | LC50 (MOLT-4; Homo sapiens): > 100 µM | TGI (UACC-257 [12]): 2.85 µM | GI50 (UACC-257 [12]; Homo sapiens): 1.51 µM | LC50 (NCI-60 lethal concentration, 50% cell kill) (UACC-257 [12]; Homo sapiens): 5.37 µM | TGI (HOP-62): 14.1 µM | GI50 (HOP-62; Homo sapiens): 4.26 µM | LC50 (concentration killing 50% of cells) (HOP-62; Homo sapiens): 37.7 µM | TGI (SK-MEL-28 [13]): 3.23 µM | GI50 (SK-MEL-28 [13]; Homo sapiens): 1.79 µM | LC50 (SK-MEL-28 [13]; Homo sapiens): 5.85 µM | TGI (HT29; 48 h): 3.48 µM | GI50 (HT29; Homo sapiens, HT-29, 48 h): 1.87 µM | LC50 (concentration killing 50% of cells) (HT29; Homo sapiens, HT-29, 48 h): 6.48 µM | TGI (SW-620): 3.47 µM | GI50 (SW-620; Homo sapiens): 1.76 µM | LC50 (SW-620; Homo sapiens): 6.85 µM | TGI (SK-MEL-5 [14]): 2.97 µM | GI50 (SK-MEL-5 [14]; Homo sapiens): 1.62 µM | CC50 (SK-MEL-5 [14]; [17]): 5.47 µM | TGI (RPMI-8226 [15]): 5.19 µM | GI50 (RPMI-8226 [15]; Homo sapiens): 1.79 µM | CC50 (RPMI-8226 [15]; [17]): > 100 µM | TGI (EKVX): 3.12 µM | GI50 (EKVX; Homo sapiens): 1.6 µM | CC50 (EKVX; [17]): 6.08 µM | TGI (A549/ATCC): 8.97 µM | GI50 (A549/ATCC; Homo sapiens): 2.83 µM | CC50 (A549/ATCC; [17]): 38.8 µM | TGI (HCC-2998): 3.26 µM | GI50 (HCC-2998; Homo sapiens): 1.81 µM | LC50 (concentration killing 50% of cells) (HCC-2998; Homo sapiens): 5.88 µM | TGI (SNB-19): 18.8 µM | GI50 (SNB-19; Homo sapiens): 5.82 µM | CC50 (SNB-19; [17]): 44.2 µM | TGI (MCF7 [16]): 5.33 µM | GI50 (MCF7 [16]; Homo sapiens): 1.82 µM | LC50 (MCF7 [16]; Homo sapiens): > 100 µM
